This is an account of results in ChEMBL document CHEMBL5352454, “Design, synthesis, and evaluation of tricyclic compounds containing phenyl-tetrazole as XOR inhibitors” (Eur J Med Chem, 2023).

The source made the active and inactive calls. The calls are words filed in the database; no cut-off is given here.

Assay [1] addresses T1, Xanthine dehydrogenase/oxidase (Homo sapiens, UniProt P47989). The assay is described as follows: Inhibition of XOR (unknown origin) using xanthine as substrate incubated for 3 mins followed by xanthine addition by spectroscopy based analysis.
In assay [2] the test system is Mus musculus. The assay can be described thus: Hypouricemic activity in hypoxanthine/potassium oxonate-induced hyperuricemia mouse model assessed as reduction in serum uric acid level at 5 mg/kg, IG measured upto 9 hrs. It is filed as functional, organism-based.
The subject of assay [3] is Mus musculus. The assay can be described thus: Hypouricemic activity in hypoxanthine/potassium oxonate-induced hyperuricemia mouse model assessed as reduction in uric acid level at 5 mg/kg, IG measured after 3 to 5 hrs. It is filed as functional, organism-based. Particulars: time 3-5 hrs.
In assay [4] the target is T1, Xanthine dehydrogenase/oxidase. The assay is described as follows: Inhibition of XOR (unknown origin) using xanthine as substrate at 10 uM incubated for 3 mins followed by xanthine addition by spectroscopy based analysis relative to control. To be noted: 0.05 h.
The subject of assay [5] is Mus musculus. The assay is described as follows: Hypouricemic activity in hypoxanthine/potassium oxonate-induced hyperuricemia mouse model assessed as reduction in uric acid level at 5 mg/kg, IG measured after 3 hrs. Type of assay: functional, organism-based.

T1 sequence (P47989 whole entry): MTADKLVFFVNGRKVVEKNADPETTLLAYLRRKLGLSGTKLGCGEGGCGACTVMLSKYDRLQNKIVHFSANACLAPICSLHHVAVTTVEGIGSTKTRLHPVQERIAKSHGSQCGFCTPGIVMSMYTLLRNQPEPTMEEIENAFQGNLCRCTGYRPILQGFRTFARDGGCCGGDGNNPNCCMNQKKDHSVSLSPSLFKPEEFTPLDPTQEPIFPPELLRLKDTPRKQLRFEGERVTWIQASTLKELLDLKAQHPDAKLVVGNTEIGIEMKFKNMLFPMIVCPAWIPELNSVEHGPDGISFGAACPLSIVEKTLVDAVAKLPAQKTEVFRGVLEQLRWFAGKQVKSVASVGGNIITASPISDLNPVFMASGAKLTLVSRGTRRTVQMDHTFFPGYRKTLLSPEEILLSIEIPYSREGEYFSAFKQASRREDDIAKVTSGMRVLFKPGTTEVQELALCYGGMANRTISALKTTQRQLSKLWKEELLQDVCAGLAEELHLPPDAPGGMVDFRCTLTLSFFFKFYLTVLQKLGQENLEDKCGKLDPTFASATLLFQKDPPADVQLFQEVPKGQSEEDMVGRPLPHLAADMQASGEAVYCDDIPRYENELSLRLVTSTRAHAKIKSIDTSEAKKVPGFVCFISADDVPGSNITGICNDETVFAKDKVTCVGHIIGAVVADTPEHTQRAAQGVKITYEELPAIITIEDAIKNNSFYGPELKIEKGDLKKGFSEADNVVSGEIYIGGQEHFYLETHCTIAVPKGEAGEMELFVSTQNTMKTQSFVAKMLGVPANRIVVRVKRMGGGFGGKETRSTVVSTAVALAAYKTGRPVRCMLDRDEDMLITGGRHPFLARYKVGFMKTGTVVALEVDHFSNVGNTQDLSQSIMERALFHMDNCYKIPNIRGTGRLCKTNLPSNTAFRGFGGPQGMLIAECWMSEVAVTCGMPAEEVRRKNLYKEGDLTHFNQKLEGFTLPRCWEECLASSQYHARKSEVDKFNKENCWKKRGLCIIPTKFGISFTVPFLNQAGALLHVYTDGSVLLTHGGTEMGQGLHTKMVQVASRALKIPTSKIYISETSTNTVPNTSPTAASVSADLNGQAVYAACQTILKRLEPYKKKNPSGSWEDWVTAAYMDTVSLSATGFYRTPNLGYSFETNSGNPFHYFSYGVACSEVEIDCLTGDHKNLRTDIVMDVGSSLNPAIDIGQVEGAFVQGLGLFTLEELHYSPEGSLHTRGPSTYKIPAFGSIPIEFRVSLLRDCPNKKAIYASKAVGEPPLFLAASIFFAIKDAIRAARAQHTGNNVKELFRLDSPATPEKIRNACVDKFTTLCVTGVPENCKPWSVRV

For the molecule `O=C(Nc1ccc(Cl)cc1)c1ccc(-c2nnn[nH]2)cc1`, the IC50 (usually the concentration that inhibits the measured activity by half) in assay [1] was determined as 0.0263 µM. In addition, the outcome in the assay on Mus musculus [2] and with Mus musculus [3] was Active.

In the case of `COc1ccc(-c2ccc(-c3nnn[nH]3)cc2)cc1`, the IC50 in assay [1] was determined as 1.39 µM.

Turning to `c1cc(-c2ccc(-c3nnn[nH]3)cc2)n[nH]1`, the inhibition – broadly, the percentage by which the read-out fell short of the control – at 10 µM in assay [4] was less than 50%.

Molecule `O=C(O)c1ccc(-c2ccc(-c3nnn[nH]3)cc2)cc1Cl` returned an IC50 in assay [1] of 0.41 µM. This counts as sub-micromolar.

As to `O=Cc1ccccc1-c1ccc(-c2nnn[nH]2)cc1`, the IC50 in assay [1] was 0.49 µM.

For the molecule `O=C(O)c1cc(-c2ccc(-c3nnn[nH]3)cc2)ccc1Cl`, in assay [1], the IC50 amounted to 0.72 µM.

In assay [1], `CCOc1ccc(CNC(=O)c2ccc(-c3nnn[nH]3)cc2)cc1` gave an IC50 of 0.37 µM.

On to `CCOc1ccc(-c2ccc(-c3nnn[nH]3)cc2)cc1`, for which, in assay [1], it took 0.44 µM to reach half-maximal inhibition (IC50).

In assay [1], `c1ncc(-c2ccc(-c3nnn[nH]3)cc2)cn1` showed an IC50 of 0.92 µM.

In assay [1], `O=Cc1cc(Cl)ccc1-c1ccc(-c2nnn[nH]2)cc1` returned an IC50 of 0.54 µM. This IC50 is about 1.7-fold lower than that of the molecule before.

Take `CC(C)(C)c1ccc(-c2ccc(-c3nnn[nH]3)cc2)cc1`: 4.23 µM corresponded to half-maximal inhibition in assay [1] (IC50).

For the molecule `CC(C)Oc1ccc(NC(=O)c2ccc(-c3nnn[nH]3)cc2)cc1`, in assay [1], the IC50 was 0.055 µM. The result with Mus musculus [2] and with Mus musculus [3] was Active.

Consider `CCOc1ccc(NC(=O)c2ccc(-c3nnn[nH]3)cc2)cc1`, for which half-maximal inhibition in assay [1] (IC50) required 0.0293 µM. Besides, the outcome in the assay with Mus musculus [2] and in the assay on Mus musculus [3] was Active.

Regarding `CC(=O)c1ccc(-c2ccc(-c3nnn[nH]3)cc2)cc1`, the half-maximal inhibitory concentration (IC50) in assay [1] came to 0.18 µM. In other words, the sub-micromolar range.

Turning to `COc1ccc(NC(=O)c2ccc(-c3nnn[nH]3)cc2)cc1`, the concentration for half-maximal inhibition (IC50) in assay [1] is 0.04 µM.

Consider `c1cc(-c2ccc(-c3nnn[nH]3)cc2)co1`, for which, in assay [4], the inhibition at 10 µM is less than 50%.

Take `COc1ccccc1-c1ccc(-c2nnn[nH]2)cc1`: it took 1.69 µM to reach half-maximal inhibition in assay [1] (IC50).

Regarding `COc1cccc(-c2ccc(-c3nnn[nH]3)cc2)c1`, 2.09 µM corresponded to half-maximal inhibition in assay [1] (IC50).

Regarding `CCOc1ccccc1-c1ccc(-c2nnn[nH]2)cc1`, in assay [4], the inhibition at 10 µM was less than 50%.

For the molecule `CCCOc1ccc(NC(=O)c2ccc(-c3nnn[nH]3)cc2)cc1`, in assay [1], the IC50 came out at 0.16 µM.

In assay [4], `c1cc(-c2ccc(-c3nnn[nH]3)cc2)cs1` gave an inhibition at 10 µM of less than 50%.

For the molecule `Cc1nc(-c2ccc(OCC(C)C)c(C#N)c2)sc1C(=O)O` [FEBUXOSTAT], the IC50 in assay [1] stood at 0.00691 µM. Besides, the result in the assay on Mus musculus [5] was Active.
